Measurements published in patent publication US6706740B2, “Fungicidal heterocyclic aromatic amides and their compositions, methods of use and preparation” (Dow AgroSciences LLC, priority 1999, dated 2004).

Each compound was assayed on Magnaporthe grisea (Pyricularia oryzae—PYRIOR) (assay: microbe, parasite or virus in culture). Settings: Pyricularia oryzae, read-out: PYRIOR in vitro Growth Inhibition.
Format: cell-based

| SMILES | inhibition at 25 ppm [%] |
| --- | --- |
| COc1ccc(Oc2ccc(NC(=O)c3nccc(OC)c3O)cc2)cc1 [Compound 435] | < 80 |
| COc1ccnc(C(=O)Nc2ccc(OCc3cccc(C(F)(F)F)c3)cc2)c1O [Compound 447] | < 80 |
| COc1ccnc(C(=O)N[C@@H]2C(=O)O[C@@H](C)C[C@@H](C)C(=O)O[C@@H]2C)c1O [Compound 381] | < 80 |
| O=C(NCc1ccc(Cl)cc1)c1ccncc1O [Compound 507] | < 80 |

Each compound was assayed on Rhizoctonia solani (RHIZSO) (assay: microbe, parasite or virus in culture). Settings: Rhizoctonia solani, read-out: RHIZSO in vitro Growth Inhibition.
Format: cell-based

| SMILES | inhibition at 25 ppm [%] |
| --- | --- |
| COc1ccc(Oc2ccc(NC(=O)c3nccc(OC)c3O)cc2)cc1 [Compound 435] | < 80 |
| COc1ccnc(C(=O)Nc2ccc(OCc3cccc(C(F)(F)F)c3)cc2)c1O [Compound 447] | < 80 |
| COc1ccnc(C(=O)N[C@@H]2C(=O)O[C@@H](C)C[C@@H](C)C(=O)O[C@@H]2C)c1O [Compound 381] | < 80 |
| O=C(NCc1ccc(Cl)cc1)c1ccncc1O [Compound 507] | < 80 |

These compounds were tested on Mycosphaerella graminicola (Septoria tritici—SEPTTR) (assay: In vitro fungal growth inhibition, Mycosphaerella graminicola (SEPTTR)). Settings: Zymoseptoria tritici; 25 ppm in growth medium; read-out: SEPTTR in vitro Growth Inhibition.
Format: cell-based

| SMILES | inhibition at 25 ppm [%] |
| --- | --- |
| COc1ccc(Oc2ccc(NC(=O)c3nccc(OC)c3O)cc2)cc1 [Compound 435] | > 80 |
| COc1ccnc(C(=O)Nc2ccc(OCc3cccc(C(F)(F)F)c3)cc2)c1O [Compound 447] | < 80 |
| COc1ccnc(C(=O)N[C@@H]2C(=O)O[C@@H](C)C[C@@H](C)C(=O)O[C@@H]2C)c1O [Compound 381] | > 80 |

Same assay, conditions: Zymoseptoria tritici; 25 ppm in the growth medium; read-out: SEPTTR in vitro Growth Inhibition

| SMILES | inhibition at 25 ppm [%] |
| --- | --- |
| O=C(NCc1ccc(Cl)cc1)c1ccncc1O [Compound 507] | < 80 |

What follows are compounds tested on Stagonospora nodorum (Leptosphaeria nodorum—LEPTNO) (assay: In vitro fungal growth inhibition, Stagonospora nodorum (LEPTNO)). Settings: Leptosphaeria; 25 ppm in growth medium; read-out: LEPTNO in vitro Growth Inhibition.
Format: cell-based

| SMILES | inhibition at 25 ppm [%] |
| --- | --- |
| COc1ccc(Oc2ccc(NC(=O)c3nccc(OC)c3O)cc2)cc1 [Compound 435] | < 80 |
| COc1ccnc(C(=O)Nc2ccc(OCc3cccc(C(F)(F)F)c3)cc2)c1O [Compound 447] | < 80 |
| COc1ccnc(C(=O)N[C@@H]2C(=O)O[C@@H](C)C[C@@H](C)C(=O)O[C@@H]2C)c1O [Compound 381] | > 80 |

Same assay, conditions: Leptosphaeria; 25 ppm in the growth medium; read-out: LEPTNO in vitro Growth Inhibition

| SMILES | inhibition at 25 ppm [%] |
| --- | --- |
| O=C(NCc1ccc(Cl)cc1)c1ccncc1O [Compound 507] | < 80 |

Each compound was assayed on Ustilago maydis (USTIMA) (assay: microbe, parasite or virus in culture). Settings: Mycosarcoma maydis, read-out: USTIMA in vitro Growth Inhibition.
Format: cell-based

| SMILES | inhibition at 25 ppm [%] |
| --- | --- |
| COc1ccc(Oc2ccc(NC(=O)c3nccc(OC)c3O)cc2)cc1 [Compound 435] | < 80 |
| COc1ccnc(C(=O)Nc2ccc(OCc3cccc(C(F)(F)F)c3)cc2)c1O [Compound 447] | < 80 |
| COc1ccnc(C(=O)N[C@@H]2C(=O)O[C@@H](C)C[C@@H](C)C(=O)O[C@@H]2C)c1O [Compound 381] | < 80 |
| O=C(NCc1ccc(Cl)cc1)c1ccncc1O [Compound 507] | < 80 |

The compounds below were run on Phytophthora infestans (PHYTIN) (assay: microbe, parasite or virus in culture). Settings: Phytophthora infestans, read-out: PHYTIN in vitro Growth Inhibition.
Format: cell-based

| SMILES | inhibition at 25 ppm [%] |
| --- | --- |
| COc1ccc(Oc2ccc(NC(=O)c3nccc(OC)c3O)cc2)cc1 [Compound 435] | < 80 |
| COc1ccnc(C(=O)Nc2ccc(OCc3cccc(C(F)(F)F)c3)cc2)c1O [Compound 447] | < 80 |
| COc1ccnc(C(=O)N[C@@H]2C(=O)O[C@@H](C)C[C@@H](C)C(=O)O[C@@H]2C)c1O [Compound 381] | < 80 |
| O=C(NCc1ccc(Cl)cc1)c1ccncc1O [Compound 507] | < 80 |

These compounds were tested on Phytophthora infestans—PHYTIN (assay: whole plant or invertebrate). Settings: Phytophthora, in Solanum lycopersicum, 24 h, read-out: PHYTIN in vivo 1 Day Protectant.
Format: in vivo

| SMILES | pest or weed control at 100 ppm [%] |
| --- | --- |
| COc1ccc(Oc2ccc(NC(=O)c3nccc(OC)c3O)cc2)cc1 [Compound 435] | < 25 |
| COc1ccnc(C(=O)Nc2ccc(OCc3cccc(C(F)(F)F)c3)cc2)c1O [Compound 447] | < 25 |
| COc1ccnc(C(=O)N[C@@H]2C(=O)O[C@@H](C)C[C@@H](C)C(=O)O[C@@H]2C)c1O [Compound 381] | < 25 |
| O=C(NCc1ccc(Cl)cc1)c1ccncc1O [Compound 507] | < 25 |

Each compound was assayed on Puccinia recondita—PUCCRT (assay: Brown Rust of Wheat, in vivo whole plant, 24 Hour Protectant). Settings: Puccinia; 100 ppm spray, wheat, 24 hour protectant; control of fungal infection vs untreated plants; read-out: PUCCRT in vivo 1 Day Protectant.

| SMILES | pest or weed control at 100 ppm [%] |
| --- | --- |
| COc1ccc(Oc2ccc(NC(=O)c3nccc(OC)c3O)cc2)cc1 [Compound 435] | < 25 |
| COc1ccnc(C(=O)Nc2ccc(OCc3cccc(C(F)(F)F)c3)cc2)c1O [Compound 447] | < 25 |
| COc1ccnc(C(=O)N[C@@H]2C(=O)O[C@@H](C)C[C@@H](C)C(=O)O[C@@H]2C)c1O [Compound 381] | 25 to 74 |

Same assay, conditions: Puccinia; wheat plants sprayed at 100 ppm, inoculated after 24 hours; control of fungal infection vs untreated plants; read-out: PUCCRT in vivo 1 Day Protectant

| SMILES | pest or weed control at 100 ppm [%] |
| --- | --- |
| O=C(NCc1ccc(Cl)cc1)c1ccncc1O [Compound 507] | < 25 |

These compounds were tested on Erysiphe graminis—ERYSGT (assay: Powdery Mildew of Wheat, in vivo whole plant, 24 Hour Protectant). Settings: Erysiphe; 100 ppm spray, wheat, 24 hour protectant; control of fungal infection vs untreated plants; read-out: ERYSGT in vivo 1 Day Protectant.

| SMILES | pest or weed control at 100 ppm [%] |
| --- | --- |
| COc1ccc(Oc2ccc(NC(=O)c3nccc(OC)c3O)cc2)cc1 [Compound 435] | < 25 |
| COc1ccnc(C(=O)Nc2ccc(OCc3cccc(C(F)(F)F)c3)cc2)c1O [Compound 447] | < 25 |
| COc1ccnc(C(=O)N[C@@H]2C(=O)O[C@@H](C)C[C@@H](C)C(=O)O[C@@H]2C)c1O [Compound 381] | < 25 |

Same assay, conditions: Erysiphe; wheat plants sprayed at 100 ppm, inoculated after 24 hours; control of fungal infection vs untreated plants; read-out: ERYSGT in vivo 1 Day Protectant

| SMILES | pest or weed control at 100 ppm [%] |
| --- | --- |
| O=C(NCc1ccc(Cl)cc1)c1ccncc1O [Compound 507] | < 25 |

What follows are compounds tested on Septoria tritici—SEPTTR (assay: Leaf Blotch of Wheat, in vivo whole plant, 24 Hour Protectant). Settings: Zymoseptoria tritici, 24 h, 100 ppm spray, wheat, 24 hour protectant; control of fungal infection vs untreated plants; read-out: SEPTTR in vivo 1 Day Protectant.

| SMILES | pest or weed control at 100 ppm [%] |
| --- | --- |
| COc1ccc(Oc2ccc(NC(=O)c3nccc(OC)c3O)cc2)cc1 [Compound 435] | < 25 |
| COc1ccnc(C(=O)Nc2ccc(OCc3cccc(C(F)(F)F)c3)cc2)c1O [Compound 447] | < 25 |
| COc1ccnc(C(=O)N[C@@H]2C(=O)O[C@@H](C)C[C@@H](C)C(=O)O[C@@H]2C)c1O [Compound 381] | < 25 |

Same assay, conditions: Zymoseptoria tritici, 24 h, wheat plants sprayed at 100 ppm, inoculated after 24 hours; control of fungal infection vs untreated plants; read-out: SEPTTR in vivo 1 Day Protectant

| SMILES | pest or weed control at 100 ppm [%] |
| --- | --- |
| O=C(NCc1ccc(Cl)cc1)c1ccncc1O [Compound 507] | < 25 |

What follows are compounds tested on Leptosphaeria nodorum—LEPTNO (assay: Glume Blotch of Wheat, in vivo whole plant, 24 Hour Protectant). Settings: Leptosphaeria; 100 ppm spray, wheat, 24 hour protectant; control of fungal infection vs untreated plants; read-out: LEPTNO in vivo 1 Day Protectant.

| SMILES | pest or weed control at 100 ppm [%] |
| --- | --- |
| COc1ccc(Oc2ccc(NC(=O)c3nccc(OC)c3O)cc2)cc1 [Compound 435] | 25 to 74 |
| COc1ccnc(C(=O)Nc2ccc(OCc3cccc(C(F)(F)F)c3)cc2)c1O [Compound 447] | 25 to 74 |
| COc1ccnc(C(=O)N[C@@H]2C(=O)O[C@@H](C)C[C@@H](C)C(=O)O[C@@H]2C)c1O [Compound 381] | < 25 |

Same assay, conditions: Leptosphaeria; wheat plants sprayed at 100 ppm, inoculated after 24 hours; control of fungal infection vs untreated plants; read-out: LEPTNO in vivo 1 Day Protectant

| SMILES | pest or weed control at 100 ppm [%] |
| --- | --- |
| O=C(NCc1ccc(Cl)cc1)c1ccncc1O [Compound 507] | < 25 |
